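Interpolation was linear, between the two tested concentrations surrounding the appropriate level; five concentrations were tested over 48 hours in 96-well plates. GI50 is the concentration that inhibits growth by half. The concentration for full growth arrest is given as TGI.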
How the values were obtained:
Assay in all cases: DTP human tumour cell line panel, 48 h
[1] = tested on: CCRF-CEM leukemia
[2] = tested on: HT29 colon
[3] = tested on: LOX IMVI melanoma
[4] = tested on: NCI-H23 lung
[5] = tested on: SK-MEL-5 melanoma
[6] = tested on: SNB-75 CNS
[7] = tested on: SR leukemia
[8] = tested on: SW-620 colon
[9] = tested on: UACC-62 melanoma
[10] = tested on: TK-10 renal

| SMILES | TGI [1] [µM] | TGI [2] [µM] | TGI [3] [µM] | TGI [4] [µM] | TGI [5] [µM] | TGI [6] [µM] | TGI [7] [µM] | TGI [8] [µM] | TGI [9] [µM] | GI50 [2] [µM] | GI50 [3] [µM] | GI50 [4] [µM] | GI50 [5] [µM] | GI50 [6] [µM] | GI50 [7] [µM] | GI50 [8] [µM] | GI50 [10] [µM] | TGI [10] [µM] | GI50 [9] [µM] | GI50 [1] [µM] |
| --- | --- | --- | --- | --- | --- | --- | --- | --- | --- | --- | --- | --- | --- | --- | --- | --- | --- | --- | --- | --- |
| CCOC(=O)c1cc2cc([N+](=O)[O-])ccc2oc1=O | > 100 | > 100 | > 100 | > 100 | > 100 | > 100 | > 100 | > 100 | > 100 | – | – | – | – | – | – | – | – | – | – | – |
| CCn1c(-c2cc3ccccc3cc2OC(=O)c2ccccc2)n[nH]c1=S | – | > 50 | > 50 | > 50 | > 50 | > 50 | > 50 | > 50 | > 50 | 42.4 | 26.6 | 22.5 | 19.8 | > 50 | 19.8 | > 50 | > 50 | > 50 | 28.8 | – |
| COCCn1cc(-c2csc(-c3c[nH]c4ccc(F)cc34)n2)c2cccnc21 | – | > 100 | > 100 | > 100 | > 100 | > 100 | > 100 | > 100 | > 100 | 2.9 | 3.44 | 3.88 | 2.69 | 2.97 | 3.24 | 3.63 | – | – | 6.78 | – |
| N#CC(C#N)=C/C=C/c1cccc([N+](=O)[O-])c1 | 15.2 | – | 2.37 | 4.26 | 2.66 | 6.28 | 15.3 | 2.57 | 2.96 | – | 0.913 | 1.59 | 1.35 | 1.73 | 0.576 | 0.914 | – | – | 1.3 | 0.556 |
| COc1ccccc1OCC(O)CO (stereo not given) | – | > 100 | > 100 | > 100 | > 100 | > 100 | > 100 | > 100 | > 100 | > 100 | > 100 | > 100 | > 100 | > 100 | > 100 | > 100 | > 100 | > 100 | > 100 | – |
| Cc1ccc(NC(=O)CCC(=O)C(C#N)c2ccc(Cl)cc2)cc1C (stereo not given) | > 100 | > 100 | > 100 | > 100 | > 100 | > 100 | – | > 100 | > 100 | – | – | – | – | – | – | – | – | > 100 | – | – |
| S=C1OC2C3C4CC5C3C(O1)C1C5C4C21 (stereo not given) | > 100 | > 100 | > 100 | – | > 100 | > 100 | > 100 | > 100 | > 100 | – | – | – | – | – | – | – | – | > 100 | – | – |
| Cc1cc(C(=O)NCCN(C)C)c2nc3ccccc3nc2c1 | – | 19.1 | 9.17 | 23.6 | > 41.6 | 48.3 | > 100 | > 37.4 | 18.7 | – | – | – | – | – | – | – | – | > 59.1 | – | – |
| O=C1C=Cc2noc3cccc1c23 | 5.35 | 79.7 | 9.51 | 26 | 24.2 | 25.8 | – | 16.2 | 13.4 | – | – | – | – | – | – | – | – | 32.3 | – | – |
| ClCc1ccc(Cn2cnc3ncnc(Cl)c32)cc1 | – | 3.59 | – | 30.6 | 12.1 | – | 2.7 | 7.18 | 12 | 1.22 | – | 16 | 2.82 | – | 0.822 | 2.58 | 1.48 | 2.92 | 2.5 | – |
| C(=C1/CCCCC([n+]2ccccc2)=N1)/c1ccccc1 | > 100 | > 100 | > 100 | > 100 | – | > 100 | > 100 | > 100 | > 100 | – | – | – | – | – | – | – | – | – | – | – |
| COc1ccc(-c2nc(N)nc(-c3cc(C)ccc3O)c2Cl)cc1 | > 100 | > 100 | > 100 | > 100 | – | 63.9 | > 100 | > 100 | > 100 | – | – | – | – | – | – | – | – | 86.4 | – | – |
| Clc1ccc(CCN2CCOCC2)c(Cl)c1 | > 100 | > 100 | – | > 100 | > 100 | 83.3 | > 100 | – | > 100 | – | – | – | – | – | – | – | – | – | – | – |
| Cc1nc(Nc2ccc([N+](=O)[O-])cc2)sc1C(=O)/C=C/c1ccc(N(C)C)cc1 | > 100 | > 100 | > 100 | > 100 | > 100 | > 100 | – | > 100 | > 100 | – | – | – | – | – | – | – | – | > 100 | – | – |
| Clc1cccc(C2SCc3nc4ccccc4n32)c1Cl (stereo not given) | 48.2 | 27.5 | – | 32.1 | 27.3 | 18.6 | – | 30.8 | 34.3 | – | – | – | – | – | – | – | – | 29.2 | – | – |
| O=[N+]([O-])C(=C(c1ccccc1)c1ccccc1)[N+](=O)[O-] | 22.1 | – | 9.68 | 52.8 | – | 28.5 | 28.5 | 25.4 | 9.56 | – | – | – | – | – | – | – | – | 33.2 | – | – |
| Cc1ccc(C)c2sc3cc(=O)ccc-3nc12 | 70.3 | > 100 | – | > 100 | 31 | > 100 | > 100 | > 100 | 33.6 | – | – | – | – | – | – | – | – | 66.8 | – | – |
| C=C1C(=O)C23C(CC(OC(C)=O)C1[C@@H]2OC(C)=O)C1(C)C(OC(C)=O)CCC(C)(C)C1C[C@@H]3OC(C)=O (stereo not given in full) | – | 2.22 | 2.63 | – | 3.33 | 2.89 | – | 2.75 | 3.72 | – | – | – | – | – | – | – | – | – | – | – |
| CC12CC(=O)NN=C1c1ccccc1C2 (stereo not given) | > 100 | > 100 | > 100 | > 100 | > 100 | > 100 | – | > 100 | > 100 | – | – | – | – | – | – | – | – | > 100 | – | – |
| COc1ccc(/C=C/CO)cc1OC | – | > 100 | – | > 100 | > 100 | > 100 | > 100 | > 100 | > 100 | – | – | – | – | – | – | – | – | > 100 | – | – |
| Cc1cc(Br)cc(C)c1NC(=O)C(=O)C(C(=O)c1ccc(Cl)c(Cl)c1)C1OC(=O)c2ccccc21 (stereo not given) | > 100 | > 100 | > 100 | > 100 | – | – | > 100 | > 100 | > 100 | – | – | – | – | – | – | – | – | > 100 | – | – |
| Cc1[nH]nc(C(=O)N/N=C/c2cccs2)c1N=NN(C)C | > 100 | 17.4 | 34.7 | > 100 | 50.2 | 8.85 | – | 93.5 | 51.7 | – | – | – | – | – | – | – | – | 73.5 | – | – |
